# Key:
# [1] = tested on: K562/adr (drug-resistant, chronic myeloid leukemia, CML); assay: MTT cell growth inhibition, K562/adr leukemia cells, 72 h; assay type: cell-based; details: Homo sapiens, K562/Adr
# Protocol: (§1) The standard sample of tanshinone I (TA) and the 2-alkyl- or 2-aromatic-substituted tanshinone I derivatives of the present invention are sufficiently dissolved in dimethylsulfoxide to produce a stock solution of 10 mg/mL, which is refrigerated at 4° C. and stored in dark, and is diluted with cell culture medium to a desired concentration prior to experimentation.
# (§2) Obtaining 6000 well-growing leukemia cells and inoculating them into wells of a 96-well cell culture plate. The culture medium is the RPMI-1640 cell culture medium containing 10% fetal bovine serum. After adding on the second day the 2-alkyl- or 2-aromatic-substituted tanshinone I derivatives of different concentrations and mixing uniformly, placing the plate in a carbon dioxide cell incubator (5% CO2) at 37° C. and incubated for 72 hours. Then the viable cell concentration is determined by MTT method. In this experiment, the cell viability in control group (not treated with any compound) is set as 100%, and the cell viability (%) after treatment by the compounds and the half maximum inhibitory concentration for the leukemia cell at 72 hours (IC50 value of 72 hours, μg/mL) are calculated.
# [2] = tested on: Kasumi-1 (acute myeloid leukemia M2 type, AML-M2); assay: MTT cell growth inhibition, Kasumi-1 leukemia cells, 72 h; assay type: cell-based; details: Homo sapiens, Kasumi-1, 72 h
# Protocol: as §1, §2
# [3] = tested on: NB4 (acute promyelocytic leukemia, AML); assay: MTT cell growth inhibition, NB4 leukemia cells, 72 h; assay type: cell-based
# Protocol: as §1, §2
# [4] = tested on: Jurkat (acute lymphoblastic leukemia, ALL); assay: MTT cell growth inhibition, Jurkat leukemia cells, 72 h; assay type: cell-based; details: Homo sapiens, 72 h
# Protocol: as §1, §2
# [5] = tested on: H9 (acute lymphoblastic leukemia, ALL); assay: MTT cell growth inhibition, H9 leukemia cells, 72 h; assay type: cell-based
# Protocol: as §1, §2
# [6] = tested on: RPMI8226 (multiple myeloma); assay: MTT cell growth inhibition, RPMI8226 multiple myeloma cells, 72 h; assay type: cell-based, human; details: Homo sapiens, RPMI 8226, 72 h
# Protocol: as §1, §2
# A549 (human lung cancer) = assay: MTT cell growth inhibition, A549 cells, 72 h; assay type: cell-based; details: Homo sapiens, A549, 72 h
# Protocol: as §1, with “with a” for “with”, “to the” for “to a”
# (§3) Obtaining 6000 well-growing human solid tumor cells and inoculating them into wells of a 96-well cell culture plate. The culture medium is DMEM High Glucose cell culture medium containing 10% fetal bovine serum. The plate is placed in a carbon dioxide cell incubator (5% CO2) at 37° C. and incubated for 24 hours. After adding the 2-alkyl- or 2-aromatic-substituted tanshinone I derivatives of different concentrations and mixing uniformly, the plate is placed in a carbon dioxide cell incubator (5% CO2) at 37° C. and incubated for 72 hours. Then the viable cell concentration is determined by MTT method. In this experiment, the cell viability in control group (not treated with any compound) is set as 100%, and the cell viability (%) after treatment by the compounds and the half maximum inhibitory concentration for the leukemia cell at 72 hours (IC50 value of 72 hours, μg/mL) are calculated.
# [7] = tested on: PANC-1 (pancreatic cancer); assay: MTT cell growth inhibition, PANC-1 cells, 72 h; assay type: cell-based, human; details: Homo sapiens, PANC-1, 72 h
# Protocol: as §1, with “with a” for “with”, “to the” for “to a”
# as §3
# [8] = tested on: Becap37 (human breast cancer cell); assay: MTT cell growth inhibition, Becap37 cells, 72 h; assay type: cell-based
# Protocol: as §1, with “with a” for “with”, “to the” for “to a”
# as §3
# MG63 (osteosarcoma) = assay: MTT cell growth inhibition, MG63 cells, 72 h; assay type: cell-based, human; details: Homo sapiens, MG-63, 72 h
# Protocol: as §1, with “with a” for “with”, “to the” for “to a”
# as §3
# [9] = tested on: Hep G2 (human liver cancer cell); assay: MTT cell growth inhibition, Hep G2 cells, 72 h; assay type: cell-based
# Protocol: as §1, with “with a” for “with”, “to the” for “to a”
# as §3
# [10] = tested on: RKO (human colon adenocarcinoma cell); assay: MTT cell growth inhibition, RKO cells, 72 h; assay type: cell-based
# Protocol: as §1, with “with a” for “with”, “to the” for “to a”
# as §3
# [11] = tested on: U87 MG (malignant glioma cell); assay: MTT cell growth inhibition, U87 MG cells, 72 h; assay type: cell-based, human
# Protocol: as §1, with “with a” for “with”, “to the” for “to a”
# as §3
# [12] = tested on: Hela (human cervical cancer cell); assay: MTT cell growth inhibition, Hela cells, 72 h; assay type: cell-based
# Protocol: as §1, with “with a” for “with”, “to the” for “to a”
# as §3
# [13] = tested on: CaES-17 (esophageal cancer cell); assay: MTT cell growth inhibition, CaES-17 cells, 72 h; assay type: cell-based, human; details: Homo sapiens, CaEs17, CaEs-17, 72 h
# Protocol: as §1, with “with a” for “with”, “to the” for “to a”
# as §3
# [14] = tested on: CNE (nasopharyngeal carcinoma cell); assay: MTT cell growth inhibition, CNE cells, 72 h; assay type: cell-based, human; details: Homo sapiens, CNE, 72 h
# Protocol: as §1, with “with a” for “with”, “to the” for “to a”
# as §3
# [15] = tested on: Hep-2 (laryngeal carcinoma); assay: MTT cell growth inhibition, Hep-2 cells, 72 h; assay type: cell-based, human; details: Homo sapiens, HEp-2, 72 h
# Protocol: as §1, with “with a” for “with”, “to the” for “to a”
# as §3
# [16] = tested on: MGC 803 (human gastric cancer cell); assay: MTT cell growth inhibition, MGC 803 cells, 72 h; assay type: cell-based
# Protocol: as §1, with “with a” for “with”, “to the” for “to a”
# as §3
# PC-3 (prostate cancer) = assay: MTT cell growth inhibition, PC-3 cells, 72 h; assay type: cell-based, human
# Protocol: as §1, with “with a” for “with”, “to the” for “to a”
# as §3
# [17] = tested on: SK-OV-3 (ovarian cancer cell); assay: MTT cell growth inhibition, SK-OV-3 cells, 72 h; assay type: cell-based, human
# Protocol: as §1, with “with a” for “with”, “to the” for “to a”
# as §3
smiles,measurement,setting,value
Cc1c(-c2ccc(C(=O)O)cc2)oc2c1C(=O)C(=O)c1c-2ccc2c(C)cccc12 [BS-TA-302],IC50,[1]; read-out: IC50,1.08 µg/mL
same,IC90,[1]; read-out: IC90,3.6 µg/mL
same,IC50,[2]; read-out: IC50,3.85 µg/mL
same,IC90,[2]; read-out: IC90,17.5 µg/mL
same,IC50,"[3]; NB4, 72 h, read-out: IC50",0.2 µg/mL
same,IC90,"[3]; NB4, 72 h, read-out: IC90",1 µg/mL
same,improvement of anti-NB4 activity as compared with tanshinone I per se,"[3]; NB4, vs tanshinone I",~5 fold
same,IC50,[4]; read-out: IC50,0.84 µg/mL
same,IC90,[4]; read-out: IC90,> 16 µg/mL
same,IC50,"[5]; H9, 72 h, read-out: IC50",0.7 µg/mL
same,IC90,"[5]; H9, 72 h, read-out: IC90",1.98 µg/mL
same,improvement of anti-H9 activity as compared with tanshinone I per se,"[5]; H9, vs tanshinone I",~5 fold
same,IC50,[6]; read-out: IC50,1 µg/mL
same,IC90,[6]; read-out: IC90,16.6 µg/mL
same,IC50,A549 (human lung cancer); read-out: IC50,16.6 µg/mL
same,IC90,A549 (human lung cancer); read-out: IC90,> 16 µg/mL
same,IC50,[7]; read-out: IC50,5.48 µg/mL
same,IC90,[7]; read-out: IC90,> 16 µg/mL
same,IC50,"[8]; Homo sapiens, Becap-37, 72 h, read-out: IC50",1.28 µg/mL
same,IC90,"[8]; Homo sapiens, Becap-37, 72 h, read-out: IC90",> 16 µg/mL
same,anti-Becap37 activity (in words),[8]; Table 2,superior to that of tanshinone I per se
same,IC50,MG63 (osteosarcoma); read-out: IC50,1.05 µg/mL
same,IC90,MG63 (osteosarcoma); read-out: IC90,> 16 µg/mL
same,IC50,"[9]; Homo sapiens, HepG2, Hep G2, 72 h, read-out: IC50",1.94 µg/mL
same,IC90,"[9]; Homo sapiens, HepG2, Hep G2, 72 h, read-out: IC90",> 16 µg/mL
same,anti-Hep G2 activity (in words),[9]; Table 2,superior to that of tanshinone I per se
same,IC50,"[10]; Homo sapiens, RKO, 72 h, read-out: IC50",1.53 µg/mL
same,IC90,"[10]; Homo sapiens, RKO, 72 h, read-out: IC90",> 16 µg/mL
same,anti-RKO activity (in words),[10]; Table 2,superior to that of tanshinone I per se
same,IC50,"[11]; Homo sapiens, U-87 MG, U87-MG, 72 h, read-out: IC50",0.5 µg/mL
same,IC90,"[11]; Homo sapiens, U-87 MG, U87-MG, 72 h, read-out: IC90",> 16 µg/mL
same,anti-U87 MG activity (in words),[11]; Table 2,superior to that of tanshinone I per se
same,IC50,"[12]; Homo sapiens, HeLa, 72 h, read-out: IC50",0.5 µg/mL
same,IC90,"[12]; Homo sapiens, HeLa, 72 h, read-out: IC90",16 µg/mL
same,anti-Hela activity (in words),[12]; Table 2,superior to that of tanshinone I per se
same,IC50,[13]; read-out: IC50,6.83 µg/mL
same,IC90,[13]; read-out: IC90,> 16 µg/mL
same,IC50,[14]; read-out: IC50,15 µg/mL
same,IC90,[14]; read-out: IC90,> 16 µg/mL
same,IC50,[15]; read-out: IC50,8 µg/mL
same,IC90,[15]; read-out: IC90,> 16 µg/mL
same,IC50,"[16]; Homo sapiens, MGC-803, 72 h, read-out: IC50",0.38 µg/mL
same,IC90,"[16]; Homo sapiens, MGC-803, 72 h, read-out: IC90",3.3 µg/mL
same,anti-MGC 803 activity (in words),[16]; Table 2,significantly improves
same,IC50,"PC-3 (prostate cancer); Homo sapiens, PC-3, 72 h, read-out: IC50",6.49 µg/mL
same,IC90,"PC-3 (prostate cancer); Homo sapiens, PC-3, 72 h, read-out: IC90",> 16 µg/mL
same,anti-PC-3 activity (in words),PC-3 (prostate cancer); Table 2,significantly improves
same,IC50,"[17]; Homo sapiens, SK-OV-3, 72 h, read-out: IC50",11.1 µg/mL
same,IC90,"[17]; Homo sapiens, SK-OV-3, 72 h, read-out: IC90",> 16 µg/mL
same,anti-SK-OV-3 activity (in words),[17]; Table 2,superior to that of tanshinone I per se

# Reference: patent US9771343B2, “2-alkyl-or-aryl-substituted tanshinone derivatives, and preparation method and application thereof” (Hangzhou Bensheng Pharmaceutical Co., Ltd., priority 2011, dated 2017)
